Reference: the NIST ThermoML archive (doi:10.1016/j.jct.2019.04.017)
Where “and” joins values, the source holds several entries; their conditions need not be identical. Identical values can stand only once. ± gives the expanded uncertainty stated by the source.

Assay: xn = mol fraction of the nth substance listed
Conditions: 96 kPa, Liquid; for viscosity: Cone and plate viscometry; for electrical conductivity: Frequency=0.001 MHz, Alternating current cell with electrodes

C1CCC2=NCCCN2CC1 [1,8-diaza-7-bicyclo[5.4.0]undecene] + OCC(O)CO
Conditions | electrical conductivity, 288.1 K [S/m] | electrical conductivity, 293.1 K [S/m] | electrical conductivity, 298.1 K [S/m] | electrical conductivity, 303.1 K [S/m] | electrical conductivity, 308.1 K [S/m] | viscosity, 288.1 K | viscosity, 298.1 K [mPa·s] | viscosity, 308.1 K
x1 = 0.0501 | – | – | – | – | – | 3852 ± 840 mPa·s | 1458 ± 210 | 626.5 ± 66 mPa·s
x1 = 0.0502 | 0.0181 ± 0.00072 | 0.0243 ± 0.00096 | 0.0327 ± 0.0013 | 0.0423 ± 0.0017 | 0.0534 ± 0.0021 | – | – | –
x1 = 0.0909 | – | – | – | – | – | 5116 ± 1300 mPa·s | 1802 ± 280 | 759.4 ± 84 mPa·s
x1 = 0.0914 | 0.0194 ± 0.00077 | 0.0272 ± 0.0011 | 0.0371 ± 0.0015 | 0.0478 ± 0.0019 | 0.062 ± 0.0025 | – | – | –
x1 = 0.1 | 0.0187 ± 0.00083 | – | 0.0352 ± 0.0016 | – | 0.0592 ± 0.0026 | 5432 ± 1400 mPa·s | 1876 ± 290 | 784.2 ± 88 mPa·s
x1 = 0.1115 | 0.0182 ± 0.00072 | 0.0249 ± 0.00099 | 0.0339 ± 0.0013 | 0.044 ± 0.0017 | – | – | – | –
x1 = 0.1266 | 0.0169 ± 0.00067 | 0.0238 ± 0.00094 | 0.0317 ± 0.0013 | 0.0433 ± 0.0017 | – | – | – | –
x1 = 0.1667 | – | – | – | – | – | 5975 ± 1600 mPa·s | 2092 ± 340 | 818.8 ± 93 mPa·s
x1 = 0.1672 | 0.0141 ± 0.00056 | 0.0208 ± 0.00082 | 0.0283 ± 0.0011 | 0.0374 ± 0.0015 | – | – | – | –
x1 = 0.2 | 0.0116 ± 0.00046 | 0.0167 ± 0.00066 | 0.023 ± 0.00091 | 0.031 ± 0.0012 | – | 6100 ± 1600 mPa·s and 6110 ± 1700 mPa·s | 2107 ± 340 | 833.7 ± 95 mPa·s and 835.4 ± 100 mPa·s
x1 = 0.2153 | – | – | – | – | – | 6150 ± 1600 mPa·s | 2175 ± 360 | 838.8 ± 96 mPa·s
x1 = 0.2306 | – | – | – | – | – | 6006 ± 1600 mPa·s | 2087 ± 340 | 828.5 ± 94 mPa·s
x1 = 0.2504 | 0.00817 ± 0.00032 | 0.0117 ± 0.00046 | 0.0161 ± 0.00064 | 0.0204 ± 0.00081 | – | – | – | –
x1 = 0.287 | 0.00592 ± 0.00023 | 0.00833 ± 0.00033 | 0.0112 ± 0.00045 | 0.015 ± 0.0006 | – | – | – | –
x1 = 0.3059 | – | – | – | – | – | 5665 ± 1500 mPa·s | 1988 ± 320 | 771.5 ± 86 mPa·s
x1 = 0.3333 | – | – | – | – | – | 5582 ± 1400 mPa·s | 1968 ± 310 | 742.2 ± 82 mPa·s
x1 = 0.3338 | 0.00385 ± 0.00015 | 0.00534 ± 0.00021 | 0.00723 ± 0.00029 | 0.0103 ± 0.00041 | – | – | – | –
x1 = 0.4003 | 0.00156 ± 6.2e-05 | 0.00223 ± 8.8e-05 | 0.00307 ± 0.00012 | 0.00416 ± 0.00016 | – | – | – | –
x1 = 0.4011 | – | – | – | – | – | 5043 ± 1200 mPa·s | 1705 ± 260 | 664.5 ± 71 mPa·s
x1 = 0.5 | 0.000299 ± 1.2e-05 | 0.000456 ± 1.8e-05 | 0.000675 ± 2.7e-05 | 0.000965 ± 3.8e-05 | – | 4049 ± 910 mPa·s | 1315 ± 180 | 503 ± 49 mPa·s
x1 = 0.5632 | – | – | – | – | – | 3138 ± 630 mPa·s | 1017 ± 130 | 393.5 ± 36 mPa·s
x1 = 0.5656 | 0.000105 ± 4.2e-06 | 0.00016 ± 6.3e-06 | 0.000249 ± 9.9e-06 | 0.000356 ± 1.4e-05 | – | – | – | –
x1 = 0.625 | – | – | – | – | – | 1906 ± 310 mPa·s | 616.2 ± 66 | 224.2 ± 18 mPa·s
x1 = 0.6255 | 4.63e-05 ± 1.8e-06 | 7.22e-05 ± 2.9e-06 | 0.000122 ± 4.8e-06 | 0.000176 ± 7e-06 | – | – | – | –
x1 = 0.75 | 8.75e-05 ± 3.9e-06 | – | 0.000189 ± 8.4e-06 | – | – | 468.1 ± 48 mPa·s | 186.1 ± 15 | 84.66 ± 5.9 mPa·s
x1 = 0.753 | 8.75e-05 ± 3.5e-06 | 0.000125 ± 5e-06 | 0.000189 ± 7.5e-06 | 0.000254 ± 1e-05 | – | – | – | –
x1 = 0.8333 | 0.000221 ± 9.8e-06 | – | 0.000405 ± 1.8e-05 | – | – | 119.1 ± 8.8 mPa·s | 51 ± 3.4 | 33.4 ± 2.2 mPa·s
x1 = 0.8334 | 0.000221 ± 8.8e-06 | 0.000314 ± 1.3e-05 | 0.000405 ± 1.6e-05 | 0.000526 ± 2.1e-05 | – | – | – | –
x1 = 0.9094 | 0.000432 ± 1.7e-05 | 0.000514 ± 2e-05 | 0.000603 ± 2.4e-05 | 0.000695 ± 2.8e-05 | – | – | – | –
x1 = 0.95 | 0.000486 ± 1.9e-05 | 0.000561 ± 2.2e-05 | 0.000638 ± 2.5e-05 | 0.000702 ± 2.8e-05 | – | – | – | –
x1 = 0.975 | 0.000452 ± 1.8e-05 | 0.000511 ± 2e-05 | 0.000561 ± 2.2e-05 | 0.000615 ± 2.4e-05 | – | – | – | –
x1 = 1 | 0.000222 ± 8.8e-06 | 0.000241 ± 9.5e-06 | 0.000267 ± 1.1e-05 | 0.000297 ± 1.2e-05 | – | 15.35 ± 1 mPa·s | 10.32 ± 0.67 | 8.17 ± 0.53 mPa·s
